Assay results reported in US8940719B2, “Lithocholic acid analogues that inhibit sialyltransferase” (Academia Sinica, priority 2006, dated 2015).
Read-outs that look alike come from different tables or passages of the source.

Experiments:
[1] = target: Rat liver α-2,3-ST (Rattus norvegicus (Rat), UniProt Q02734); test: α-2,3-ST inhibition assay (IC50), RP-HPLC of sialylated disaccharide product; format: biochemical; conditions: for fold potency increase over 19: vs compound 19
Procedure: Compound synthesis was carried out with the following materials according the following general procedures. All chemicals and buffers were purchased from Sigma, Aldrich, or Acros Organics; and all amino acids were purchased from Advanced Chemtech. CMP-Neu5Ac was synthesized starting with sialic acid (Traving & Schauer, Cell. Mol. Life Sci., 1998, 54:1330; Schwarzkopf et al., Proc. Natl. Acad. Sci. USA, 2002, 99:5267). Synthesis of lactose acceptor was achieved as described in Harduin-Lepers et al., Biochimie, 2001, 83:727. Rat liver α-2,3-ST was obtained from CalBiochem at a concentration of 3.7 mU/μL, stored at −80° C., and used within one week. Melting points (m.p.) were recorded with a capillary melting point apparatus (Electrothermal MEL-TEMP); FT-IR spectra were recorded with Perkin Elmer FT-IR Spectrometer (Paragon 1000) in KBr pellets; ^1H and ^13C NMR spectra were recorded with Bruker AMX400 or 500 MHz instruments. Proton chemical shifts (δ) are reported in parts per million (ppm) relative to the methine singlet at 7.24 ppm for the residual CHCl3 in the deuteriochloroform, or the methyl pentet at 3.30 ppm for the residual CHD2OD in the methanol-d4. Carbon chemical shifts are reported in ppm relative to the internal ^13C signals in CDCl3 (77.0 ppm) and CD3OD-d4 (49.0 ppm). Mass spectra were obtained with a FAB JMS-700 double focusing mass spectrometer (JEOL, Tokyo, Japan), MALDI Voyager DE-PRO (Applied Biosystem Houston, USA), and ESI Finnigan LCQ mass spectrometer (Thermo Finnigan, San Jose, Calif., United States) in negative mode. […] The separation procedure was performed using H2O/0.1% trifluoroacetic acid (TFA) (A) and CH3CN/0.05% TFA (B) as eluents.
Each compound was tested for α-2,3-ST inhibition using CMP-Neu5Ac as a substrate and a modified disaccharide with a 4,5-dimethoxy-2-nitrobenzyl group as a UV-labeled acceptor. Specifically, inhibition assays were performed in triplicate in reaction solution containing 200 mM MES buffer, 100 mM sodium chloride, 0.5 mM disodium-EDTA, 0.01% Triton X-100, 20 μM modified disaccharide, 1.4 mU α-2,3-ST and inhibitor (in dimethyl sulfoxide) in a total volume of 55. Reactions were incubated at 37° C. for 10 minutes at which point 1 mM CMP-Neu5Ac (to a final concentration 3 μM) was added. The solution was then incubated at 37° C. until a detectable amount of product was produced. The reaction was terminated by quenching the solution mixture with heat at 100° C. for 5 minutes. Enzyme activity was determined by monitoring the quantity of sialylated disaccharide product produced over time at 348 nm by RP-HPLC (Supelco Discovery® HS C18, 5 μm, 4.6 mm×25 cm).

[2] = test system: CL1-5 lung cancer cells; test: Cytotoxicity / cell growth, trypan blue exclusion; format: cell-based; conditions: 5 μM or 10 μM, 48 hours, FBS-free media
Procedure: To determine the effect of the synthesized membrane-permeable α-2,3-ST inhibitors disclosed in Example 1 on cellular processes, in vitro cytotoxicity and adhesion assays were performed on the highly metastatic lung cancer cell line CL1-5. CL1-5 cells were plated at 1×10^6 cells per 60 mm culture dish in DMEM containing 10% fetal bovine serum (FBS) in 5% CO2. The following day the media was replaced with FBS-free media containing inhibitors at 5 μM or 10 μM concentration in DMSO. Controls cells were treated with 0.1% DMSO-containing medium without inhibitor. Cell number and viability were determined 48 hours later by trypan blue exclusion. Treatment with three α-2,3-ST inhibitors, N-Pentyonic (compound 21), Lith-Triethyl-de (compound 20), and Lith-o-Asp (compound 13), inhibited CL1-5 cell growth by between 10-20% compared to control (FIG. 2A).

[3] = α-2,3-ST, CMP-Neu5Ac substrate, triplicate, read-out: IC50

Rat liver α-2,3-ST, sequence (Q02734 whole entry): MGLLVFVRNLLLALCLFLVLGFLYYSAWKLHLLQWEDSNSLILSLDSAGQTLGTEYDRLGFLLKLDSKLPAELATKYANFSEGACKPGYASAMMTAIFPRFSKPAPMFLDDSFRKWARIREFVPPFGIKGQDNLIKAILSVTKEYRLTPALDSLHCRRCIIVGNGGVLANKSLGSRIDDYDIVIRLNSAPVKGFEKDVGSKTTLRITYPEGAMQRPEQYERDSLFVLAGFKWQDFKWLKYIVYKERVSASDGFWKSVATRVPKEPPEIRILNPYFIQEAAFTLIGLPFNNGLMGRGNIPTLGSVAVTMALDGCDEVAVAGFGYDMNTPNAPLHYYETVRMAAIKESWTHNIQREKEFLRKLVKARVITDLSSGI

Row | Structure (SMILES) | IC50 [1, 3] [mM] | further results
1 | C[C@H](CCCO)C1CC[C@H]2C3CC[C@@H]4C[C@H](O)CC[C@]4(C)C3CC[C@]12C (stereo partly drawn) [Compound 7, (3R,5R,10S,13R,14S)-17-((R)-5-hydroxypentan-2-yl)-10,13-dimethyl-hexadecahydro-1H-cyclopenta[a]phenanthren-3-ol] | 0.351 | fold decrease in potency relative to lithocholic acid ([1]; vs lithocholic acid): 5 to 17 fold
2 | C[C@H](CCCOP(=O)(Oc1ccccc1)Oc1ccccc1)C1CC[C@H]2C3CC[C@@H]4C[C@H](O)CC[C@]4(C)C3CC[C@]12C (stereo partly drawn) [Compound 8, (R)-4-((3R,5R,10S,13R,14S)-3-hydroxy-10,13-dimethyl-hexadecahydro-1H-cyclopenta[a]phenanthren-17-yl)pentyl diphenyl phosphonate] | > 0.1 | fold decrease in potency relative to lithocholic acid ([1]; vs lithocholic acid): 5 to 17 fold
3 | C[C@H](CCC(=O)NCC(=O)O)C1CC[C@H]2C3CC[C@@H]4C[C@H](O)CC[C@]4(C)C3CC[C@]12C (stereo partly drawn) [Compound 9, 2-((R)-4-((3R,5R,10S,13R,14S)-3-hydroxy-10,13-dimethyl-hexadecahydro-1H-cyclopenta[a]phenanthren-17-yl)pentanamido)acetic acid] | 0.025 | 
4 | C[C@H](CCC(=O)N[C@@H](CC(=O)O)C(=O)O)C1CC[C@H]2C3CC[C@@H]4C[C@H](O)CC[C@]4(C)C3CC[C@]12C (stereo partly drawn) [Compound 10, (S)-2-((R)-4-((3R,5R,10S,13R,14S)-3-hydroxy-10,13-dimethyl-hexadecahydro-1H-cyclopenta[a]phenanthren-17-yl)pentanamido)succinic acid] | 0.016 | 
5 | C[C@H](CCC(=O)O)C1CC[C@H]2C3CC[C@@H]4CC(=O)CC[C@]4(C)C3CC[C@]12C (stereo partly drawn) [Compound 11, (R)-4-((5R,10S,13R,14S)-10,13-dimethyl-3-oxo-hexadecahydro-1H-cyclopenta[a]phenanthren-17-yl)pentanoic acid] | 0.139 | fold decrease in potency relative to lithocholic acid ([1]; vs lithocholic acid): 7 fold
6 | C[C@H](CCC(=O)O)C1CC[C@H]2C3CC[C@@H]4C[C@H](OC(=O)CCC(=O)O)CC[C@]4(C)C3CC[C@]12C (stereo partly drawn) [Compound 12, (R)-4-((3R,5R,10S,13R,14S)-3-(3-carboxypropanoyloxy)-10,13-dimethyl-hexadecahydro-1H-cyclopenta[a]phenanthren-17-yl)pentanoic acid] | 0.012 | fold potency over lithocholic acid ([1]; vs lithocholic acid): 2 fold
7 | C[C@H](CCC(=O)OC(C)(C)C)C1CC[C@H]2C3CC[C@@H]4C[C@H](OC(=O)CCC(=O)O)CC[C@]4(C)C3CC[C@]12C (stereo partly drawn) [Compound 14, 4-((3R,5R,10S,13R,14S)-17-((R)-5-tert-butoxy-5-oxopentan-2-yl)-10,13-dimethyl-hexadecahydro-1H-cyclopenta[a]phenanthren-3-yloxy)-4-oxobutanoic acid] | 0.013 | 
8 | C[C@H](CCC(=O)NCC(=O)O)C1CC[C@H]2C3CC[C@@H]4C[C@H](OC(=O)CCC(=O)O)CC[C@]4(C)C3CC[C@]12C (stereo partly drawn) [Compound 15, 4-((3R,5R,10S,13R,14S)-17-((R)-5-(carboxymethylamino)-5-oxopentan-2-yl)-10,13-dimethyl-hexadecahydro-1H-cyclopenta[a]phenanthren-3-yloxy)-4-oxobutanoic acid] | 0.022 | 
9 | C[C@H](CCC(=O)N[C@@H](CC(=O)O)C(=O)O)C1CC[C@H]2C3CC[C@@H]4C[C@H](OC(=O)CCC(=O)O)CC[C@]4(C)C3CC[C@]12C (stereo partly drawn) [Compound 16, (S)-2-((R)-4-((3R,5R,10S,13R,14S)-3-(3-carboxypropanoyloxy)-10,13-dimethyl-hexadecahydro-1H-cyclopenta[a]phenanthren-17-yl)pentanamido)succinic acid] | 0.018 | 
10 | C[C@H](CCC(=O)O)C1CC[C@H]2C3CC[C@@H]4C[C@H](OC(=O)[C@H](N)CC(=O)O)CC[C@]4(C)C3CC[C@]12C (stereo partly drawn) [Compound 17, (R)-4-((3R,5R,10S,13R,14S)-3-((R)-2-amino-3-carboxypropanoyloxy)-10,13-dimethyl-hexadecahydro-1H-cyclopenta[a]phenanthren-17-yl)pentanoic acid] | 0.006 | fold improvement in potency over 13 ([1]; vs compound 13): 2 fold
11 | C[C@H](CCCn1cc(CCO)nn1)C1CC[C@H]2C3CC[C@@H]4C[C@H](O)CC[C@]4(C)C3CC[C@]12C (stereo partly drawn) [Compound 18, (3R,5R,10S,13R,14S)-17-((R)-5-(4-(2-hydroxyethyl)-1H-1,2,3-triazol-1-yl)pentan-2-yl)-10,13-dimethyl-hexadecahydro-1H-cyclopenta[a]phenanthren-3-ol] | > 0.1 | fold less potent than 21 ([1]; vs compound 21): at least 10 fold; fold less potent than 22 ([1]; vs compound 22): ≥ 20 fold
12 | C[C@H](CCCn1cc(CC(N)C(=O)O)nn1)C1CC[C@H]2C3CC[C@@H]4C[C@H](O)CC[C@]4(C)C3CC[C@]12C (stereo partly drawn) [Compound 19, 2-amino-3-(1-((R)-4-((3R,5R,10S,13R,14S)-3-hydroxy-10,13-dimethyl-hexadecahydro-1H-cyclopenta[a]phenanthren-17-yl)pentyl)-1H-1,2,3-triazol-4-yl)propanoic acid] | 0.083 | 
13 | CCOP(=O)(OCC)C(Cc1cn(CCC[C@@H](C)C2CC[C@H]3C4CC[C@@H]5C[C@H](O)CC[C@]5(C)C4CC[C@]23C)nn1)C(=O)O (stereo partly drawn) [Compound 20, 2-(diethoxyphosphoryl)-3-(1-((R)-4-((3R,5R,10S,13R,14S)-3-hydroxy-10,13-dimethyl-hexadecahydro-1H-cyclopenta[a]phenanthren-17-yl)pentyl)-1H-1,2,3-triazol-4-yl)propanoic acid] | 0.007 | inhibition of CL1-5 cell growth compared to control [2]: 10-20%; fold potency increase over 19 [1]: 8-12 fold
14 | C[C@H](CCCn1cc(CCC(=O)O)nn1)C1CC[C@H]2C3CC[C@@H]4C[C@H](O)CC[C@]4(C)C3CC[C@]12C (stereo partly drawn) [Compound 21, 3-(1-((R)-4-((3R,5R,10S,13R,14S)-3-hydroxy-10,13-dimethyl-hexadecahydro-1H-cyclopenta[a]phenanthren-17-yl)pentyl)-1H-1,2,3-triazol-4-yl)propanoic acid] | 0.01 | inhibition of CL1-5 cell growth compared to control [2]: 10-20%; fold potency increase over 19 [1]: 8-12 fold
15 | C[C@H](CCC(=O)O)[C@H]1CC[C@H]2[C@@H]3CC[C@@H]4C[C@H](O)CC[C@]4(C)[C@H]3CC[C@]12C [lithocholic acid] |  | IC50 ([1]; steroid screen for α-2,3-ST inhibition, unit mM, read-out: IC50 value): 0.021 mM
